Literature values as cited in paper PMC9159073 (Journal of medicinal chemistry, 2022).
Like-named read-outs stand apart in the source and are kept apart here.

Columns and labels:
[1] = system: SARS-CoV-2 PL^pro; details: increase in FluoZin-3 fluorescence
[2] = system: SARS-CoV-2 PL^pro
[3] = system: SARS-CoV-2 PL^pro; details: for IC50: read-out: Enzymatic inhibition IC50; for Inhibition of SARS-CoV-2 PLpro: IC50 not quantified
[4] = system: SARS-CoV-2 PL^pro; remark: listed apart in the source
[5] = system: SARS-CoV-2 PL^pro; details: read-out: IC50 (FP assay)
[6] = system: host DUBs and DUB-like proteases; details: 10 DUBs or DUB-like proteases
[7] = target: SARS-CoV-2 PL^pro; details: read-out: KD (SPR)
[8] = system: SARS-CoV-2 M^pro; details: read-out: M^pro IC50; no reducing agent in the Mpro assay
[9] = system: SARS-CoV-2 PL^pro; remark: listed apart in the source
[10] = system: SARS-CoV-2
[11] = system: SARS-CoV-2; details: for Antiviral effect in combination with hydroxychloroquine: combined with hydroxychloroquine; for Antiviral activity in combination with remdesivir: combined with remdesivir
[12] = system: SARS-CoV-2 nsp13
[13] = system: SARS-CoV-2 nsp14
[14] = system: SARS-CoV-2; details: read-out: Antiviral EC50; A549-hACE2 cells, virus yield reduction assay
[15] = system: SARS-CoV-2 PL^pro; details: read-out: IC50, deISGylating activity of PLpro; ISG15-Rh substrate
[16] = system: bacteria
[17] = system: mammalian cell culture
[18] = system: SARS-CoV-2 PL^pro; details: read-out: IC50, mass spectrometry assay; nsp 2/3 substrate
[19] = system: SARS-CoV-2; details: read-out: Antiviral EC50
[20] = system: SARS-CoV PL^pro
[21] = FRET assay, hit validation study
[22] = SARS-CoV-2 infected Vero E6 cells
[23] = read-out: Antiviral EC50 (qRTPCR), Vero E6 cells, qRT-PCR assay
[24] = read-out: IC50, deubiquitinating activity of PLpro

Molecule: c1ccc2sc(SSc3nc4ccccc4s3)nc2c1 [2,2’ -dithiobis(benzothiazole) (70), 2,2’ -dithiobis(benzothiazole)]
- Zinc ejection from PLpro [1]: eject zinc

Molecule: c1ccc(SSc2ccccn2)nc1 [2,2’ -dithiodipyridine (69), 2,2’ -dithiodipyridine]
- Zinc ejection from PLpro [1]: eject zinc

Molecule: O=C(O)c1cc(SSc2ccc([N+](=O)[O-])c(C(=O)O)c2)ccc1[N+](=O)[O-] [5,5’ -dithiobis(2-nitrobenzoic acid)]
- Zinc ejection from PLpro [1]: eject zinc

Molecule: Nc1nc2[nH]cnc2c(=S)[nH]1 [6-TG (26), 6-thioguanine]
- Intracellular PLpro inhibition in the FlipGFP assay [2]: did not inhibit
- IC50 [3, 21]: > 50 µM
- Binding to PLpro in the thermal shift assay [4]: no binding

Molecule: Cc1ccc(NC2=CC(=O)c3sc(C)nc3C2=O)cc1 [Cdk4 inhibitor III (34)]
- IC50 ([3]; HTS): 0.39 µM

Molecule: Oc1c(Cl)cc(Cl)c2cccnc12 [Chloroxine (37), chloroxine]
- IC50 [5]: 7.24 µM
- Binding to PLpro in the biolayer interferometry and thermal shift assays [4]: showed binding

Molecule: C[C@H](c1cccc2ccccc12)N1CCC(C(=O)NCc2cc(F)cc(NC(=O)N3CCN(C)CC3)c2)CC1 [Compound 8]
- Inhibition of a panel of host DUBs and DUB-like proteases [6]: did not show significant inhibition
- IC50 [3]: 0.44 µM
- Kd [7]: 2.6 µM

Molecule: CC1(C)OC2=C(C(=O)C(=O)c3ccccc32)C1n1cc(-c2ccccc2)nn1 (stereo not shown) [Compound 38]
- IC50 ([3]; 0.1 mM DTT in the PLpro assay): 1.7 µM

Molecule: CN(Cc1cn(C2C3=C(OC2(C)C)c2ccccc2C(=O)C3=O)nn1)C1=CC(=O)c2ccccc2C1=O (stereo not shown) [Compound 39]
- IC50 ([3]; 0.1 mM DTT in the PLpro assay): 2.2 µM

Molecule: CN(Cc1cn(C2C3=C(OC2(C)C)c2ccccc2C(=O)C3=O)nn1)C1=C(Br)C(=O)c2ccccc2C1=O (stereo not shown) [Compound 40]
- IC50 ([3]; 0.1 mM DTT in the PLpro assay): 3.1 µM
- IC50 [8]: 66 µM

Molecule: COC(=O)/C=C/C(=O)NNC(=O)CCc1ccc(NC(C)=O)cc1C(=O)N[C@H](C)c1cccc2ccccc12 [Compound 47]
- IC50 ([3]; covalent inhibitors): 0.23 µM
- Antiviral EC50 [10, 22]: insignificant cytoprotective effects

Molecule: C#CC(=O)NNC(=O)CCc1ccccc1C(=O)N[C@H](C)c1cccc2ccccc12 [Compound 48]
- IC50 ([3]; covalent inhibitors): 0.098 µM
- Antiviral EC50 [10, 22]: cytotoxic

Molecule: C[C@@H](NC(=O)c1ccccc1CCC(=O)NNC(=O)CCl)c1cccc2ccccc12 [Compound 49]
- IC50 ([3]; covalent inhibitors): 5.4 µM

Molecule: C[C@@H](NC(=O)c1ccccc1CCC(=O)NNC(=O)CC#N)c1cccc2ccccc12 [Compound 50]
- IC50 ([3]; covalent inhibitors): 8 µM

Molecule: C[C@@H](NC(=O)c1ccccc1CCC(=O)NNC(=O)/C(C#N)=C/C1CC1)c1cccc2ccccc12 [Compound 51]
- IC50 ([3]; covalent inhibitors): > 200 µM

Molecule: CCN(CC)C(=S)SSC(=S)N(CC)CC [Disulfiram (67), disulfiram]
- Antiviral effect in combination with hydroxychloroquine [11]: synergistic antiviral effect
- Antiviral activity in combination with remdesivir [11]: synergistic
- Zinc ejection from PLpro [1]: eject zinc
- Inhibition of nsp13 ATPase activity [12]: inhibit
- Inhibition of nsp14 exoribonuclease activity [13]: inhibit

Molecule: O=c1c2ccccc2[se]n1-c1ccccc1 [Ebselen (55), ebselen]
- Antiviral effect in combination with hydroxychloroquine [11]: synergistic antiviral effect
- Antiviral activity in combination with remdesivir [11]: synergistic
- Zinc ejection from PLpro [1]: eject zinc
- Inhibition of nsp13 ATPase activity [12]: inhibit
- Inhibition of nsp14 exoribonuclease activity [13]: inhibit

Molecule: Cc1ccc(N)cc1C(=O)N[C@H](C)c1cccc2ccccc12 [GRL0617 (4), GRL0617]
- EC50 [14]: > 20 µM

Molecule: O=Cc1ccc(O)cc1 [HBA (22), 4-hydroxybenzaldehyde]
- IC50 [15]: 3.99 ± 1.33 µM
- Antiviral EC50 (qRTPCR) ([10]; Vero E6 cells, qRT-PCR assay): not conclusive

Molecule: COC(=O)c1ccc(O)c(O)c1 [HE9 (20), methyl 3,4-dihydroxybenzoate]
- EC50 ([10]; read-out: Antiviral EC50 (CPE), cytopathic effect (CPE) assay): 10.4 µM
- EC50 [10, 23]: 0.13 µM

Molecule: C[C@H](c1ccccc1Cl)N(C)Cc1cc(O)ccc1Cl [Jun9-13-9 (11)]
- IC50 ([3]; FRET-based enzymatic assay): 6.67 µM

Molecule: CC(C)C(=O)OC[C@H]1O[C@@H](n2ccc(NO)nc2=O)[C@H](O)[C@@H]1O [Molnupiravir (2), molnupiravir]
- Ames test [16]: positive

Molecule: O=c1nc(NO)ccn1[C@@H]1O[C@H](CO)[C@@H](O)[C@H]1O [NHC, β-d-N^4-hydroxycytidine]
- Host mutational activity [17]: displayed host mutational activity

Molecule: O=C1c2ccccc2-c2nc3nnnn3nc21 [PKK1/Akt/Flt dual pathway inhibitor (32)]
- IC50 ([3]; HTS): 0.26 µM

Molecule: Cc1cc2nc3c(=O)[nH]c(=O)nc-3n(C)c2cc1C=O [Ro 08–2750 (33)]
- IC50 ([3]; HTS): 0.53 µM

Molecule: COCC[n+]1c2c(n(Cc3cnccn3)c1C)C(=O)c1ccccc1C2=O.[Br-] [YM155 (27), YM155]
- Intracellular PLpro inhibition in the FlipGFP assay [2]: not conclusive due to cell cytotoxicity
- IC50 [18]: > 50 µM
- IC50 [3, 21]: 20.1 µM
- IC50 ([3]; FRET-based enzymatic assay, Arg-Leu-Arg-Gly-Gly-AMC substrate, 50 mM HEPES, pH 7.5, 2 mM DTT): 2.47 ± 0.46 µM

Molecule: OCCc1ccc(O)cc1 [YRL (21), 4-(2-hydroxyethyl)phenol]
- IC50 [15]: 6.68 ± 1.2 µM
- Antiviral EC50 (CPE) ([10]; cytopathic effect (CPE) assay): failed to show inhibition
- EC50 [10, 23]: 1 µM

Molecule: O=C1c2c(O)cccc2[C@H]([C@@H]2O[C@H](CO)[C@@H](O)[C@H](O)[C@H]2O)c2cc(CO)cc(O)c21 [aloin A (42), aloin A]
- IC50 [9, 24]: 15.7 µM
- IC50 [3]: 13.2 µM

Molecule: O=C1c2c(O)cccc2[C@@H]([C@@H]2O[C@H](CO)[C@@H](O)[C@H](O)[C@H]2O)c2cc(CO)cc(O)c21 [aloin B (43), aloin B]
- IC50 [9, 24]: 17.5 µM
- IC50 [3]: 16.1 µM

Molecule: C[C@H]1COC2=C1C(=O)C(=O)c1c2ccc2c1CCCC2(C)C [cryptotanshinone (28), cryptotanshinone]
- Intracellular PLpro inhibition in the FlipGFP assay [2]: not conclusive due to cell cytotoxicity
- EC50 [19]: > 200 µM

Molecule: Cc1cccc2c3c(ccc12)C1=C(C(=O)C3=O)[C@@H](C)CO1 [dihydrotanshinone I (30), dihydrotanshinone I]
- IC50 [3, 21]: 33 µM
- IC50 ([3]; HTS): 0.59 µM

Molecule: CCC(CC)COC(=O)[C@H](C)N[P@](=O)(OC[C@H]1O[C@@](C#N)(c2ccc3c(N)ncnn23)[C@H](O)[C@@H]1O)Oc1ccccc1 [remdesivir (1), remdesivir]
- EC50 ([10]; read-out: Antiviral EC50, SARS-CoV-2 infected Vero E6 cells): 0.74 µM

Molecule: Cc1coc2c1C(=O)C(=O)c1c-2ccc2c1CCCC2(C)C [tanshinone IIA (31), tanshinone IIA]
- EC50 [19]: > 200 µM

Molecule: CC1(C)CCC2=C(O1)c1ccccc1C(=O)C2=O [β-lapachone (35), β-lapachone]
- IC50 ([3]; HTS): 0.61 µM

Molecule: Ac-Abu(Bth)-Dap-Gly-Gly-VME [VIR250 (44)]
- Inhibition of SARS-CoV PLpro [20]: dose-dependent inhibition
- Inhibition of SARS-CoV-2 PLpro [3]: dose-dependent inhibition

Molecule: Ac-hTyr-Dap-Gly-Gly-VME [VIR251 (45)]
- Inhibition of SARS-CoV PLpro [20]: dose-dependent inhibition
- Inhibition of SARS-CoV-2 PLpro [3]: dose-dependent inhibition
